Reference: patent publication US20030114673A1, “2-AMINO-5,6-DIHALO-3,4-DIHYDROQUINAZOLINES WITH BLOOD PLATELET REDUCING PROPERTIES” (priority 2002, published 2003)
Where a name gives a salt, the structure may show the parent alone.

Columns and labels:
Solubility in water = format: physicochemical; conditions: salt form as named
From the text: 2-Amino-5,6-dichloro-3,4-dihydroquinazoline (compound (E) wherein X and Y are both Cl) is the preferred compound for use in reducing the platelet count in patients and is preferably provided as the hydrobromide salt which is water soluble.

[1] = test system: circulating platelet levels; experiment: Daily intraperitoneal injection in mice, circulating platelet levels and safety; format: in vivo
Method: Administration of 100 μg/day of the preferred compound was sufficient to decrease platelet counts within 24-48 hours stabilizing to 50% of normal by day 5.

megakaryocytic lineage = experiment: Inhibition of megakaryocytic endoreplication; format: cell-based
CD15+ myeloid lineage = experiment: Effect on the CD15+ myeloid lineage in vitro; format: cell-based
platelet aggregation = experiment: Platelet aggregation; format: cell-based; conditions: even at high concentrations (10 μg/mL)
[2] = Cardiovascular screening and side effect profile of the compound; format: in vivo
platelet count = experiment: Platelet reducing properties; conditions: in vivo
[3] = In vitro metabolism of Anagrelide in rat liver microsomes; format: in vitro ADME
From the text: (§1) Metabolism of Anagrelide was examined in a number of in vitro systems including rat and human liver microsomes, human whole blood, human bone marrow cells and rat intestinal mucosa. […] It appears that in vivo metabolism occurs by a route that cannot be readily mimicked in vitro. It is hypothesized that the first step of in vivo metabolism involves hydroxylation of the carbon α to the carbonyl followed by amide hydrolysis and loss of the elements of glyoxylic acid.

[4] = In vitro metabolism of Anagrelide in human liver microsomes; format: in vitro ADME
From the text: as §1

[5] = In vitro metabolism of Anagrelide in human whole blood; format: in vitro ADME
From the text: as §1

[6] = In vitro metabolism of Anagrelide in human bone marrow cells; format: in vitro ADME
From the text: as §1

[7] = In vitro metabolism of Anagrelide in rat intestinal mucosa; format: in vitro ADME
From the text: as §1

[8] = parameters: species or system Rhesus Monkeys; conditions: rhesus monkey, in vivo
From the text: In a recent pharmacokinetic and excretion study of [^14C]

[9] = clinical use of Anagrelide; cited from earlier work
[10] = cited from earlier work

**Q.** What does the source list for Br.NC1=Nc2ccc(Cl)c(Cl)c2CN1 [2-amino-5,6-dichloro-3,4-dihydroquinazoline hydrobromide]?
**A.** solubility in water (Solubility in water): water soluble; circulating platelet levels ([1]; 6- to 8-month old mice, daily intraperitoneal injection): dose-dependent decrease; time to decrease in platelet counts ([1]; mice, 100 μg/day intraperitoneal): 24 to 48 h; platelet counts stabilized level ([1]; mice, 100 μg/day intraperitoneal, by day 5): 50 % of normal; apparent signs of toxicity or haemorrhaging ([1]; mice, high doses (300 μg)): did not alter white blood cell counts, bleeding time or lead to any apparent signs of toxicity or haemorrhaging; inhibition of megakaryocytic endoreplication (megakaryocytic lineage): profound inhibition; dose for inhibition of megakaryocytic endoreplication relative to doses reported for Anagrelide (megakaryocytic lineage; compared with those reported for Anagrelide): 500 times less; effect on the CD15+ myeloid lineage (CD15+ myeloid lineage): no effect; inhibition of platelet aggregation (platelet aggregation): did not inhibit platelet aggregation

**Q.** For NC1=Nc2ccc(Cl)c(Cl)c2CN1 [2-amino-5,6-dichloro-3,4-dihydroquinazoline], which antihypertensive activity ([2]; cardiovascular screening) is on record?
**A.** Only very mild antihypertensive activity

**Q.** What about the “side effects of inotropy and haemorrhaging associated with Anagrelide” value ([2]; in vivo) of the same molecule?
**A.** without the side effects of inotropy and haemorrhaging

**Q.** And the “reduction of platelet counts” value (platelet count)?
**A.** active molecule for causing reduction of platelet counts

**Q.** With O=C1CN2Cc3c(ccc(Cl)c3Cl)N=C2N1 [Anagrelide hydrochloride] as the molecule, how does the solubility in water (Solubility in water) read?
**A.** nearly insoluble in water

**Q.** Which results are given for O=C1CN2Cc3c(ccc(Cl)c3Cl)N=C2N1 [Anagrelide, 6,7-dichloro-1,5-dihydroimidazo-[2,1-b]-quinazolin-2(3H)-one]?
**A.** metabolism in vitro [3]: completely resistant to metabolism; metabolism in vitro [4]: completely resistant to metabolism; metabolism in vitro [5]: completely resistant to metabolism; metabolism in vitro [6]: completely resistant to metabolism; metabolism in vitro [7]: completely resistant to metabolism; detection of the human metabolite 2-amino-5,6-dichloro-3,4-dihydroquinazoline [8]: no human metabolite (2-amino-5,6-dichloro-3,4-dihydroquinazoline) was detected; congestive heart failure (cardiovascular side effect incidence) [9]: 1.5%; palpitations (cardiovascular side effect incidence) [9]: 26.1%; tachycardia (cardiovascular side effect incidence) [9]: 7.5%; vasodilation (cardiovascular side effect incidence) [9]: < 5%; Anagrelide dose excreted as unchanged drug in the urine ([10]; human subjects): < 1%; peak plasma concentrations of the parent drug ([10]; human subjects): 6 ng/mL; urinary radioactivity accounted for by a minimum of four to five metabolites ([10]; human, in vivo): over 75%
